The structures appear in SMILES notation. Where a name gives a salt, the structure may show the parent alone.

Hsp82, sequence (P02829 whole entry): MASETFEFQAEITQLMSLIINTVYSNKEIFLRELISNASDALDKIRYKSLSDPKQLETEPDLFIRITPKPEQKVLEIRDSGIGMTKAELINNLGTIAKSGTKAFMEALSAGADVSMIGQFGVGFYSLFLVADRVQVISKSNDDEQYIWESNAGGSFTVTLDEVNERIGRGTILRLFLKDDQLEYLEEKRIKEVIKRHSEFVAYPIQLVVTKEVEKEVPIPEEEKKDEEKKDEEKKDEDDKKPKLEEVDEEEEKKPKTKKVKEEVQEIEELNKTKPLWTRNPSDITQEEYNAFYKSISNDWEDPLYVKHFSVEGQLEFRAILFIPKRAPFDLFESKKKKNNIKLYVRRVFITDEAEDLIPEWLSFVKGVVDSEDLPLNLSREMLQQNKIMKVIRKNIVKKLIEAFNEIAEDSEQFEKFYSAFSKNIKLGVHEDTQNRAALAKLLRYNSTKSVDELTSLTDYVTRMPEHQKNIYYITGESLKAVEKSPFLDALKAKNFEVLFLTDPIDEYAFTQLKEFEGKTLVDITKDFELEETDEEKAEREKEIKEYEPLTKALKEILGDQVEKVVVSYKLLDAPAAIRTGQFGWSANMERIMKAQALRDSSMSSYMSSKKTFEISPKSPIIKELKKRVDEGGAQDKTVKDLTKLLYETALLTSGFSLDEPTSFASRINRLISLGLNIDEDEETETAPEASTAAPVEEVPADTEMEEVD

This test addresses Hsp82 (Saccharomyces cerevisiae, UniProt P02829). As to the kind of experiment: PK/LDH enzyme coupling test of the ATPase activity of Hsp82 (NADH decrease at 340 nm). Particulars: 1 μM Hsp82, 250 μM ATP, 37° C., pyruvate kinase/lactate dehydrogenase coupling, read-out: Hsp82 ATPase IC50. In kind it is biochemical. From the text:
The formation of ADP due to the ATPase activity of Hsp82 was utilized for developing another method of evaluating the enzymatic activity of this enzyme by application of an enzyme coupling system employing pyruvate kinase (PK) and lactate dehydrogenase (LDH). In this spectrophotometric method of the kinetic type, the PK catalyses the formation of ATP and of pyruvate starting from phosphoenol-pyruvate (PEP) and the ADP produced by HSP82. The pyruvate that formed, an LDH substrate, is then converted to lactate in the presence of NADH. In this case, the decrease in the concentration of NADH, measured by the decrease in absorbance at wavelength of 340 nm, is proportional to the concentration of ADP produced by HSP82. […] This mixture is preincubated at 37° C. for 30 min before adding 3.77 units of LDH and 3.77 units of PK. The reaction is started by adding the product to be evaluated, in variable concentrations, and of Hsp82, at a concentration of 1 μM. The enzymatic activity of Hsp82 is then measured continuously in a microplate reader at 37° C., at wavelength of 340 nm. The initial reaction rate is found by measuring the slope of the tangent at the origin of the recorded curve. The enzymatic activity is expressed as μM of ADP formed per minute. The effect of the various products tested is expressed as percentage of inhibition of ATPase activity, using the following codes: • A: […]
As a reminder, the IC50 is the concentration that gives 50% inhibition. `O=C(NC1c2ccccc2-c2c(-c3nc4cnccc4[nH]3)cccc21)c1ccnc2ccccc12` (racemic) [Example 67, [4-(3H-imidazo[4,5-c]pyridin-2-yl)-9H-fluoren-9(R,S)-yl]amide of quinoline-4-carboxylic acid]: the half-inhibitory concentration (IC50) was < 1 µM.

As for `ON=C1c2ccccc2-c2c1cccc2-c1nc2ccccc2[nH]1` (racemic) [Example 68, 4-(1H-benzimidazol-2-yl)-fluoren-9-one oxime (Z,E)], the IC50 is 10 to 100 µM.

As to `ON=C1c2ccccc2-c2c1cccc2-c1nc2ccc(F)cc2[nH]1` (racemic) [Example 70, 4-(6-fluoro-1H-benzimidazol-2-yl)-fluoren-9-one oxime (Z,E)], the IC50 lay in the range of 1 to 10 µM.

On to `CC(=O)NC1c2ccccc2-c2c(-c3nc4ccncc4[nH]3)cccc21` (racemic) [Example 72, N-[4-(3H-imidazo[4,5-c]pyridin-2-yl)-9H-fluoren-9(R,S)-yl]-acetamide], for which the IC50 was 1 to 10 µM.

Turning to `Nc1cc(C(=O)NC2c3ccccc3-c3c(-c4nc5ccncc5[nH]4)cccc32)ccn1` (racemic) [Example 73, 2-amino-N-[4-(3H-imidazo[4,5-c]pyridin-2-yl)-9H-fluoren-9(R,S)-yl]-isonicotinamide], the half-inhibitory concentration (IC50) is < 1 µM.

As to `O=C(NCc1ccco1)NC1c2ccccc2-c2c(-c3nc4ccncc4[nH]3)cccc21` (racemic) [Example 74, 1-furan-2-ylmethyl-3-[4-(3H-imidazo[4,5-c]pyridin-2-yl)-9H-fluoren-9(R,S)-yl]-urea], the concentration for half-maximal inhibition (IC50) is 10 to 100 µM.

For the molecule `O=C(NCc1ccc(F)cc1)NC1c2ccccc2-c2c(-c3nc4ccncc4[nH]3)cccc21` (racemic) [Example 75, 1-(4-fluorobenzyl)-3-[4-(3H-imidazo[4,5-c]pyridin-2-yl)-9H-fluoren-9(R,S)-yl]-urea], the IC50 was in the range of 10 to 100 µM.

For `Cc1noc(C)c1NC(=O)NC1c2ccccc2-c2c(-c3nc4ccncc4[nH]3)cccc21` (racemic) [Example 76, 1-(3,5-dimethyl-isoxazol-4-yl)-3-[4-(3H-imidazo[4,5-c]pyridin-2-yl)-9H-fluoren-9(R,S)-yl]-urea], the IC50 was 10 to 100 µM.

Regarding `CCOC(=O)CCNC(=O)NC1c2ccccc2-c2c(-c3nc4ccncc4[nH]3)cccc21` (racemic) [Example 77, ethyl ester of 3-{3-[4-(3H-imidazo[4,5-c]pyridin-2-yl)-9H-fluoren-9(R,S)-yl]-ureido}-propionic acid], the IC50 was 1 to 10 µM.

Turning to `CCOC(=O)CNC(=O)NC1c2ccccc2-c2c(-c3nc4ccncc4[nH]3)cccc21` (racemic) [Example 78, ethyl ester of {3-[4-(3H-imidazo[4,5-c]pyridin-2-yl)-9H-fluoren-9(R,S)-yl]-ureido}-acetic acid], the IC50 lay in the range of 10 to 100 µM.

Consider `NC(=O)CCNC(=O)NC1c2ccccc2-c2c(-c3nc4ccncc4[nH]3)cccc21` (racemic) [Example 79, trifluoroacetate of 3-{3-[4-(3H-imidazo[4,5-c]pyridin-2-yl)-9H-fluoren-9(R,S)-yl]-ureido}-propionamide], for which the IC50 was 10 to 100 µM.

In the case of `O=C1CNC(=O)N1C1c2ccccc2-c2c(-c3nc4ccncc4[nH]3)cccc21` (racemic) [Example 80, 3-[4-(3H-imidazo[4,5-c]pyridin-2-yl)-9H-fluoren-9(R,S)-yl]-imidazolidine-2,4-dione], the IC50 lay in the range of 10 to 100 µM.

As to `O=C(NC1c2ccccc2-c2c(-c3nc4ccncc4[nH]3)cccc21)c1cc[n+]([O-])cc1` (racemic) [Example 81, N-[4-(3H-imidazo[4,5-c]pyridin-2-yl)-9H-fluoren-9(R,S)-yl]-1-oxyisonicotinamide], the IC50 was 1 to 10 µM.

Take `CCc1cc(C(=O)NC2c3ccccc3-c3c(-c4nc5ccncc5[nH]4)cccc32)ccn1` (racemic) [Example 82, 2-ethyl-N-[4-(3H-imidazo[4,5-c]pyridin-2-yl)-9H-fluoren-9(R,S)-yl]-isonicotinamide]: the IC50 was < 1 µM.

With `O=C(NC1c2ccccc2-c2c(-c3nc4ccccc4[nH]3)cccc21)c1cccc2ncccc12` (racemic) [Example 83, [4-(1H-benzimidazol-2-yl)-9H-fluoren-9(R,S)-yl]amide of quinoline-5-carboxylic acid], the IC50 fell in the range of 10 to 100 µM.

Take `O=C(NC1c2ccccc2-c2c(-c3nc4ccc(F)cc4[nH]3)cccc21)c1cccc2ncccc12` (racemic) [Example 84, [4-(6-fluoro-1H-benzimidazol-2-yl)-9H-fluoren-9(R,S)-yl]amide of quinoline-5-carboxylic acid]: the IC50 was in the range of 1 to 10 µM.

On to `O=C(NC1c2ccccc2-c2c(-c3nc4ccncc4[nH]3)cccc21)c1ccnc(Cl)c1` (racemic) [Example 87, 2-chloro-N-[4-(3H-imidazo[4,5-c]pyridin-2-yl)-9H-fluoren-9(R,S)-yl]-isonicotinamide], for which the half-maximal inhibitory concentration (IC50) lay within 1 to 10 µM.

Turning to `O=C(NC1c2ccccc2-c2c(-c3nc4ccncc4[nH]3)cccc21)c1ccnc2[nH]ccc12` (racemic) [Example 92, [4-(3H-imidazo[4,5-c]pyridin-2-yl)-9H-fluoren-9(R,S)-yl]amide of 1H-pyrrolo[2,3-b]pyridine-4-carboxylic acid], the IC50 is < 1 µM.

In the case of `O=C(NC1c2ccccc2-c2c(-c3nc4ccncc4[nH]3)cccc21)c1ccnc(CO)c1` (racemic) [Example 94, 2-hydroxymethyl-N-[4-(3H-imidazo[4,5-c]pyridin-2-yl)-9H-fluoren-9(R,S)-yl]-isonicotinamide], the IC50 fell in the range of 1 to 10 µM.

Consider `O=C(NC1c2ccccc2-c2c(-c3nc4ccncc4[nH]3)cccc21)c1ccnc(F)c1` (racemic) [Example 95, 2-fluoro-N-[4-(3H-imidazo[4,5-c]pyridin-2-yl)-9H-fluoren-9(R,S)-yl]-isonicotinamide], for which the IC50 lay in the range of 1 to 10 µM.

For `Cc1cnccc1C(=O)NC1c2ccccc2-c2c(-c3nc4ccncc4[nH]3)cccc21` (racemic) [Example 96, N-[4-(3H-imidazo[4,5-c]pyridin-2-yl)-9H-fluoren-9(R,S)-yl]-3-methyl-isonicotinamide], the half-inhibitory concentration (IC50) lay in the range of 1 to 10 µM.

On to `O=C(NC1c2ccccc2-c2c(-c3nc4ccncc4[nH]3)cccc21)c1ccnc2ncccc12` (racemic) [Example 97, hydrochloride of [4-(3H-imidazo[4,5-c]pyridin-2-yl)-9H-fluoren(R,S)-9-yl]amide of 1,8-naphthyridine-4-carboxylic acid], for which the IC50 lay in the range of 1 to 10 µM.

`O=C(NC1c2ccccc2-c2c(-c3nc4ccncc4[nH]3)cccc21)c1ccncc1Br` (racemic) [Example 98, 3-bromo-N-[4-(3H-imidazo[4,5-c]pyridin-2-yl)-9H-fluoren-9(R,S)-yl]-isonicotinamide]: the IC50 lay within 1 to 10 µM.

With `C[C@@H](C(=O)N[C@@H]1c2ccccc2-c2c(-c3nc4ccncc4[nH]3)cccc21)c1cccnc1` (racemic) [Example 100, N-[4-(3H-imidazo[4,5-c]pyridin-2-yl)-9H-fluoren-9(R,S)-yl]-2(R,S)-(pyridin-3-yl)-propionamide], the half-maximal inhibitory concentration (IC50) fell in the range of 10 to 100 µM.

As to `O=C(NC1c2ccccc2-c2c(-c3nc4ccncc4[nH]3)cccc21)c1ccnc(Br)c1` (racemic) [Example 102, 2-bromo-N-[4-(3H-imidazo[4,5-c]pyridin-2-yl)-9H-fluoren-9(R,S)-yl]-isonicotinamide], the 50% inhibitory concentration (IC50) was < 1 µM.

On to `O=C(NC1c2ccccc2-c2c(-c3nc4ccncc4[nH]3)cccc21)c1ccncc1O` (racemic) [Example 103, 3-hydroxy-N-[4-(3H-imidazo[4,5-c]pyridin-2-yl)-9H-fluoren-9(R,S)-yl]-isonicotinamide], for which the 50% inhibitory concentration (IC50) is < 1 µM.

As for `Nc1cnccc1C(=O)NC1c2ccccc2-c2c(-c3nc4ccncc4[nH]3)cccc21` (racemic) [Example 104, 3-amino-N-[4-(3H-imidazo[4,5-c]pyridin-2-yl)-9H-fluoren-9(R,S)-yl]-isonicotinamide], the half-maximal inhibitory concentration (IC50) is < 1 µM.

On to `N#Cc1cc(C(=O)NC2c3ccccc3-c3c(-c4nc5ccncc5[nH]4)cccc32)ccn1` (racemic) [Example 105, 2-cyano-N-[4-(3H-imidazo[4,5-c]pyridin-2-yl)-9H-fluoren-9(R,S)-yl]-isonicotinamide], for which the IC50 fell in the range of 1 to 10 µM.

Consider `COc1ccc2nc(-c3cccc4c3-c3ccccc3C4NC(=O)c3ccncc3)[nH]c2c1` (racemic) [Example 106, N-[4-(6-methoxy-1H-benzimidazol-2-yl)-9H-fluoren-9(R,S)-yl]-isonicotinamide], for which the half-maximal inhibitory concentration (IC50) lay within 1 to 10 µM.

On to `ON=C1c2ccccc2-c2c1cccc2-c1nc2ccc(O)cc2[nH]1` (racemic) [Example 107, 4-(6-hydroxy-1H-benzimidazol-2-yl)-fluoren-9-one oxime (Z,E)], for which the IC50 was 10 to 100 µM.

In the case of `COC(=O)c1cc(C(=O)NC2c3ccccc3-c3c(-c4nc5ccncc5[nH]4)cccc32)ccn1` (racemic) [Example 108, methyl ester of 4-[4-(3H-imidazo[4,5-c]pyridin-2-yl)-9H-fluoren-9(R,S)-ylcarbamoyl]-pyridine-2-carboxylic acid], the 50% inhibitory concentration (IC50) is < 1 µM.

Consider `O=C(NC1c2ccccc2-c2c(-c3nc4ccncc4[nH]3)cccc21)c1ccnc(C(=O)O)c1` (racemic) [Example 109, 4-[4-(3H-imidazo[4,5-c]pyridin-2-yl)-9H-fluoren-9(R,S)-ylcarbamoyl]-pyridine-2-carboxylic acid], for which the IC50 lay in the range of 10 to 100 µM.

(Values after US7674795B2, “Fluorene derivatives, composition containing said derivatives and the use thereof” (Aventis Pharma SA, priority 2005, dated 2010).)
